Test results as given in patent publication US20260265246A1 (ICAHN SCHOOL OF MEDICINE AT MOUNT SINAI, priority 2021, published 2026).
Like-named read-outs stand apart in the source and are kept apart here.

Tests used:
5HT2A receptor [1] = molecular target: T1, 5HT2A receptor (Homo sapiens, UniProt P28223); assay: biochemical; type: binding; parameters: expressed in transfected cells; crude membranes; conditions: secondary binding assay, Cheng-Prusoff
5HT2A receptor [2] = molecular target: T1, 5HT2A receptor; assay: cell-based; parameters: expressed in transfected cells; host or cells: HEK293T cells, transient co-transfection; conditions: for Emax: HEK-293T
5HT2A receptor [3] = molecular target: T1, 5HT2A receptor; assay: cell-based; parameters: expressed in transfected cells; host or cells: HEK293T cells, transient co-transfection; conditions: for EC50: 5HT2A β-Arr EC50 (nM); for Emax: HEK-293T
[4] = 5HTA Gq EC50 (nM), BRET2 Gαq dissociation, HEK293T
[5] = BRET2 Gαq dissociation, HEK293T, normalized to 5-HT, read-out: 5HTA Gq Emax (%)
[6] = BRET1 beta-arrestin2 recruitment, HEK293T
[7] = BRET1 beta-arrestin2 recruitment, HEK293T, normalized to 5-HT, read-out: 5HT2A β-Arr Emax (%)
[8] = BRET2 Gαq dissociation, HEK293T, read-out: 5HTA Gq EC50
[9] = read-out: 5HTA Gq Emax (%), BRET2 Gαq dissociation, HEK293T, normalized to 5-HT
[10] = read-out: 5HT2A β-Arr Emax (%), BRET1 beta-arrestin2 recruitment, HEK293T, normalized to 5-HT

T1 sequence (P28223 whole entry): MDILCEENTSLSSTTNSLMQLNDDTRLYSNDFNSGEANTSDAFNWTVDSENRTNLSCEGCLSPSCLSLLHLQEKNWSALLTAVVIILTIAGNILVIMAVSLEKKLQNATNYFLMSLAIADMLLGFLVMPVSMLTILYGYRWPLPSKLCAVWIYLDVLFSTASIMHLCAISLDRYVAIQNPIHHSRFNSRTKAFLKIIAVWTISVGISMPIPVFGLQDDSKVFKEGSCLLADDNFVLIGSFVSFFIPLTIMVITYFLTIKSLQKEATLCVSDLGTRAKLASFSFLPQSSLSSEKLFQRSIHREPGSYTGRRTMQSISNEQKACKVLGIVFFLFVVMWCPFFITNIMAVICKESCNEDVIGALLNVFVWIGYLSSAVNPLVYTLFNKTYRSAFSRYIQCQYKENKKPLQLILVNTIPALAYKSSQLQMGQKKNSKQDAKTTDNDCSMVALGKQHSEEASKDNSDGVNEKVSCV

Row | Compound | Ki (5HT2A receptor [1]; 5HT2A Ki (nM)) | EC50 (5HT2A receptor [2]; [4]) | Emax (5HT2A receptor [2]; [5]) | EC50 (5HT2A receptor [3]; [6]) | Emax (5HT2A receptor [3]; [7]) | EC50 (5HT2A receptor [2]; [8]) | Emax (5HT2A receptor [2]; [9]) | Emax (5HT2A receptor [3]; [10]) | Ki (5HT2A receptor [1]; read-out: 5HT2A Ki)
1 | Clc1cccc2c(C3=CC4CCC(C3)N4)n[nH]c12 (centres unmarked) [Example 221, 3-(8-azabicyclo[3.2.1]oct-2-en-3-yl)-7-chloro-1H-indazole] | 1400 nM | 108 nM | 59.3% | 1320 nM | 66.9% |  |  |  | 
2 | Cc1cccc2c(C34CCNCC3C4)n[nH]c12 (centres unmarked) [Example 226, 3-(3-azabicyclo[4.1.0]heptan-6-yl)-7-methyl-1H-indazole] | 4630 nM | 1350 nM | 91% | 2000 nM | 52.1% |  |  |  | 
3 | Fc1cccc2c(C34CCNCC3C4)n[nH]c12 (centres unmarked) [Example 229, 3-(3-azabicyclo[4.1.0]heptan-6-yl)-7-fluoro-1H-indazole] | 1900 nM | 236 nM | 83.7% | 2070 nM | 90.2% |  |  |  | 
4 | Cc1cccc2c(N3CCNCC3)n[nH]c12 [Example 230, 7-methyl-3-(piperazin-1-yl)-1H-indazole] | 715 nM | 248 nM | 66.1% | 917 nM | 45.3% |  |  |  | 
5 | Fc1cc(Cl)c2[nH]nc(N3CCNCC3)c2c1 [Example 232, 7-chloro-5-fluoro-3-(piperazin-1-yl)-1H-indazole] | 1540 nM | 170 nM | 48.4% | 1970 nM | 29% |  |  |  | 
6 | CCCN1CCC=C(c2n[nH]c3c(CC)cccc23)C1 [Example 237, 7-ethyl-3-(1-propyl-1,2,5,6-tetrahydropyridin-3-yl)-1H-indazole] | 389 nM |  | 37.7% | 1580 nM | 39.8% | 33.6 nM |  |  | 
7 | CCc1cccc2c(C3=CCCN(C4CC4)C3)n[nH]c12 [Example 238, 3-(1-cyclopropyl-1,2,5,6-tetrahydropyridin-3-yl)-7-ethyl-1H-indazole] | 634 nM | 101 nM | 42.2% | 1020 nM | 50% |  |  |  | 
8 | CCCc1cccc2c(C3=CCCN(CC)C3)c[nH]c12 [Example 245, 3-(1-ethyl-1,2,5,6-tetrahydropyridin-3-yl)-7-propyl-1H-indole] | 600 nM | 392 nM |  | 1300 nM |  |  | 87.5% | 44.8% | 
9 | COC1(c2c[nH]c3c(Cl)cccc23)CNC1 [Example 254, 7-chloro-3-(3-methoxyazetidin-3-yl)-1H-indole] | 1080 nM | 294 nM | 88.3% | 1460 nM | 77.6% |  |  |  | 
10 | Clc1cccc2c(C3CNC3)c[nH]c12 [Example 255, 3-(azetidin-3-yl)-7-chloro-1H-indole] | 159 nM | 68.2 nM |  | 302 nM |  |  | 81.1% | 42.3% | 
11 | CN1CC(c2c[nH]c3c(Cl)cccc23)C1 [Example 256, 7-chloro-3-(1-methylazetidin-3-yl)-1H-indole] | 2010 nM | 367 nM | 97.5% | 1000 nM | 31.7% |  |  |  | 
12 | C=CCc1cccc2c(C3=CCCN(C)C3)c[nH]c12 [Example 257, 7-allyl-3-(1-methyl-1,2,5,6-tetrahydropyridin-3-yl)-1H-indole] |  |  | 90.7% | 105 nM | 52.1% | 44.9 nM |  |  | 97 nM
13 | Cc1cccc2c(C3CN(C)C3)c[nH]c12 [Example 261, 7-methyl-3-(1-methylazetidin-3-yl)-1H-indole] | 1680 nM | 196 nM | 69.3% | 1650 nM | 26.1% |  |  |  | 
14 | Clc1cc(Br)cc2c(C3CNC3)c[nH]c12 [Example 267, 3-(azetidin-3-yl)-5-bromo-7-chloro-1H-indole] | 175 nM | 949 nM | 64% | 1050 nM | 20.8% |  |  |  | 
15 | Clc1cccc2c(C34CNCCC3C4)c[nH]c12 (centres unmarked) [Example 269, 3-(3-azabicyclo[4.1.0]heptan-1-yl)-7-chloro-1H-indole] | 743 nM | 257 nM |  | 1380 nM |  |  | 88.8% | 30% | 
16 | Clc1cccc2c(C34CNCC3C4)c[nH]c12 (centres unmarked) [Example 270, 3-(3-azabicyclo[3.1.0]hexan-1-yl)-7-chloro-1H-indole] | 134 nM |  | 93.8% | 822 nM | 21.2% | 29.8 nM |  |  | 
17 | Cc1cccc2c(C34CNCC3C4)c[nH]c12 (centres unmarked) [Example 272, 3-(3-azabicyclo[3.1.0]hexan-1-yl)-7-methyl-1H-indole] | 890 nM | 100 nM | 89.5% | 1500 nM | 38% |  |  |  | 
18 | Fc1cc(Cl)c2[nH]cc(C34CNCC3C4)c2c1 (centres unmarked) [Example 279, 3-(3-azabicyclo[3.1.0]hexan-1-yl)-7-chloro-5-fluoro-1H-indole] | 75.2 nM | 110 nM |  | 380 nM |  |  | 98.6% | 60.9% | 
19 | Fc1ccc2c(C34CNCC3C4)c[nH]c2c1Cl (centres unmarked) [Example 280, 3-(3-azabicyclo[3.1.0]hexan-1-yl)-7-chloro-6-fluoro-1H-indole] | 63.8 nM | 38.1 nM |  | 256 nM |  |  | 81.6% | 55.6% | 
20 | Fc1ccc2c(C34CNCC3C4)c[nH]c2c1 (centres unmarked) [Example 281, 3-(3-azabicyclo[3.1.0]hexan-1-yl)-6-fluoro-1H-indole] |  |  | 66.3% | 369 nM | 27.9% | 52.1 nM |  |  | 61.9 nM
21 | Cc1cc(F)cc2c(C34CNCC3C4)c[nH]c12 (centres unmarked) [Example 282, 3-(3-azabicyclo[3.1.0]hexan-1-yl)-5-fluoro-7-methyl-1H-indole] | 257 nM | 165 nM |  | 1280 nM |  |  | 96.8% | 44.8% | 
22 | Cc1c(F)ccc2c(C34CNCC3C4)c[nH]c12 (centres unmarked) [Example 283, 3-(3-azabicyclo[3.1.0]hexan-1-yl)-6-fluoro-7-methyl-1H-indole] | 141 nM | 88.2 nM |  | 797 nM |  |  | 104% | 41.5% | 
